# Structures can show the parent of a compound that is named as a salt.
# Tested on: clot lysis (fibrinolysis) in diluted human citrated plasma, tPA-induced
# Test: Plasma-based clot lysis assay (5%)
# Assay type: biochemical
# Settings: human citrated platelet-poor plasma 5%, fibrinogen 3 μM, CaCl2 10 mM, tPA 0.2 nM, 37° C., OD at 405 nm
# Description: B-2. Plasma-based Clot Lysis Assay (5%)
# The clot-lysis test system configures the kinetics of clot formation and degradation in vitro and allows quantifying modulation of the process by selected test compounds.
# The test compounds were dissolved in 1% acetic acid and further complemented with an equal volume of DMSO. The resulting stock solutions were serially diluted in 0.5% acetic acid/50% DMSO. 1 μL aliquots of these solutions were placed into 384 well microplates (Greiner, black, transparent bottom), followed by 30 μL of diluted human citrated plasma (platelet-poor, final concentration: 5%; supplemented with fibrinogen, final concentration: 3 μM; dilution buffer: 20 mM HEPES, 150 mM NaCl, 0.01% Brij (pH 7)). The reactions were started by addition of 20 μL of CaCl2 (final concentration: 10 mM), and tPA (tissue plasminogen activator, final concentration: 0.2 nM) in dilution buffer, followed by an additional volume of 20 μL dilution buffer for improved mixing. The reactions were incubated at 37° C. […] IC50 values were determined by comparing the resulting time courses with the time course of a blank control reaction.
row,IC50 [nM],SMILES
1,32,"CCN(C(=O)c1c(C)nn2c(C3CCNCC3)cc(=O)[nH]c12)C1CC1 [Example 400, N-cyclopropyl-N-ethyl-2-methyl-5-oxo-7-(piperidin-4-yl)-4,5-dihydro-pyrazolo[1,5-a] pyrimidine-3-carboxamide hydrochloride]"
2,8.7,"O=c1cc(C2CCNCC2)n2ncc(-c3nnc(-c4ccc(C(F)(F)F)cc4)o3)c2[nH]1 [Example 166, 7-(piperidin-4-yl)-3-{5-[4-(trifluoromethyl)phenyl]-1,3,4-oxadiazol-2-yl}pyrazolo[1,5-a]pyrimidin-5(4H)-one hydrochloride]"
3,35,"O=c1cc(C2CCNCC2)n2ncc(-c3noc(-c4cc(Cl)cc(Cl)c4)n3)c2[nH]1 [Example 234, 3-[5-(3,5-dichlorophenyl)-1,2,4-oxadiazol-3-yl]-7-(piperidin-4-yl)pyrazolo[1,5-a]pyrimidin-5(4H)-one hydrochloride]"
4,130,"Cc1c(Cl)cccc1-c1noc(-c2cnn3c(C4CCNCC4)cc(=O)[nH]c23)n1 [Example 140, 3-[3-(3-Chloro-2-methylphenyl)-1,2,4-oxadiazol-5-yl]-7-(piperidin-4-yl)pyrazolo[1,5-a]pyrimidin-5(4H)-one hydrochloride]"
5,27,"O=C(OCC(F)(F)F)c1cnn2c(C3CCNCC3)cc(=O)[nH]c12 [Example 354, 2,2,2-trifluoroethyl 5-oxo-7-(piperidin-4-yl)-4,5-dihydropyrazolo[1,5-a]pyrimidine-3-carboxylate hydrochloride]"
6,34,"O=c1cc(C2CCNCC2)n2ncc(-c3nnc(-c4ccccc4F)o3)c2[nH]1 [Example 186, 3-[5-(2-fluorophenyl)-1,3,4-oxadiazol-2-yl]-7-(piperidin-4-yl)pyrazolo[1,5-a]pyrimidin-5(4H)-one hydrochloride]"
7,34,"O=c1cc(C2CCNCC2)n2ncc(-c3nc(CCCC(F)(F)F)no3)c2[nH]1 [Example 192, 7-(piperidin-4-yl)-3-[3-(4,4,4-trifluorobutyl)-1,2,4-oxadiazol-5-yl]pyrazolo[1,5-a]pyrimidin-5(4H)-one hydrochloride]"
8,24,"N#Cc1cccc(-c2cnn3c(C4CCNCC4)cc(=O)[nH]c23)c1 [Example 50, 3-[5-Oxo-7-(piperidin-4-yl)-4,5-dihydropyrazolo[1,5-a]pyrimidin-3-yl]benzonitrile trifluoroacetate]"
9,34,"Cc1ccc(-c2nnc(-c3cnn4c(C5CCNCC5)cc(=O)[nH]c34)o2)cc1 [Example 170, 3-[5-(4-methylphenyl)-1,3,4-oxadiazol-2-yl]-7-(piperidin-4-yl)pyrazolo[1,5-a]pyrimidin-5 (4H)-one hydrochloride]"
10,40,"O=c1cc(C2CCNCC2)n2ncc(-c3nnc(C4CCCC4)o3)c2[nH]1 [Example 177, 3-(5-cyclopentyl-1,3,4-oxadiazol-2-yl)-7-(piperidin-4-yl)pyrazolo[1,5-a]pyrimidin-5(4H)-one hydrochloride]"
11,34,"O=c1cc(C2CCNCC2)n2ncc(-c3noc(-c4cccc(C(F)(F)F)c4)n3)c2[nH]1 [Example 227, 7-(piperidin-4-yl)-3-{5-[3-(trifluoromethyl)phenyl]-1,2,4-oxadiazol-3-yl}pyrazolo[1,5-a]pyrimidin-5(4H)-one hydrochloride]"
12,34,"N#Cc1ccc(-c2nnc(-c3cnn4c(C5CCNCC5)cc(=O)[nH]c34)o2)cc1 [Example 167, 4-{5-[5-oxo-7-(piperidin-4-yl)-4,5-dihydropyrazolo[1,5-a]pyrimidin-3-yl]-1,3,4-oxadiazol-2-yl}benzonitrile hydrochloride]"
13,24,"COc1ccc(-c2noc(-c3cnn4c(C5CCNCC5)cc(=O)[nH]c34)n2)c(C)c1 [Example 154, 3-[3-(4-methoxy-2-methylphenyl)-1,2,4-oxadiazol-5-yl]-7-(piperidin-4-yl)pyrazolo[1,5-a]pyrimidin-5(4H)-one hydrochloride]"

# — US10118930B2, “Piperidinylpyrazolopyrimidinones and their use” (BAYER PHARMA AKTIENGESELLSCHAFT, priority 2015, dated 2018)
